This is an account of results in ChEMBL document CHEMBL3600320, “An oxidative coupling product of luteolin with cysteine ester and its enhanced inhibitory activity for xanthine oxidase” (Bioorg Med Chem Lett, 2015).

In series [1] the target is T1, Xanthine dehydrogenase/oxidase (Homo sapiens, UniProt P47989). In words: Inhibition of xanthine oxidase (unknown origin) using xanthine as substrate at 33 to 100 umol/L after 10 mins by HPLC method relative to control.
Series [2] addresses T1, Xanthine dehydrogenase/oxidase. The series can be described thus: Inhibition of xanthine oxidase (unknown origin) using xanthine as substrate after 10 mins by HPLC method.

The structures appear in SMILES notation. pIC50: −log10 of the molar value. A value given as a limit tells only on which side of the number the result lay.

T1 sequence (P47989 whole entry): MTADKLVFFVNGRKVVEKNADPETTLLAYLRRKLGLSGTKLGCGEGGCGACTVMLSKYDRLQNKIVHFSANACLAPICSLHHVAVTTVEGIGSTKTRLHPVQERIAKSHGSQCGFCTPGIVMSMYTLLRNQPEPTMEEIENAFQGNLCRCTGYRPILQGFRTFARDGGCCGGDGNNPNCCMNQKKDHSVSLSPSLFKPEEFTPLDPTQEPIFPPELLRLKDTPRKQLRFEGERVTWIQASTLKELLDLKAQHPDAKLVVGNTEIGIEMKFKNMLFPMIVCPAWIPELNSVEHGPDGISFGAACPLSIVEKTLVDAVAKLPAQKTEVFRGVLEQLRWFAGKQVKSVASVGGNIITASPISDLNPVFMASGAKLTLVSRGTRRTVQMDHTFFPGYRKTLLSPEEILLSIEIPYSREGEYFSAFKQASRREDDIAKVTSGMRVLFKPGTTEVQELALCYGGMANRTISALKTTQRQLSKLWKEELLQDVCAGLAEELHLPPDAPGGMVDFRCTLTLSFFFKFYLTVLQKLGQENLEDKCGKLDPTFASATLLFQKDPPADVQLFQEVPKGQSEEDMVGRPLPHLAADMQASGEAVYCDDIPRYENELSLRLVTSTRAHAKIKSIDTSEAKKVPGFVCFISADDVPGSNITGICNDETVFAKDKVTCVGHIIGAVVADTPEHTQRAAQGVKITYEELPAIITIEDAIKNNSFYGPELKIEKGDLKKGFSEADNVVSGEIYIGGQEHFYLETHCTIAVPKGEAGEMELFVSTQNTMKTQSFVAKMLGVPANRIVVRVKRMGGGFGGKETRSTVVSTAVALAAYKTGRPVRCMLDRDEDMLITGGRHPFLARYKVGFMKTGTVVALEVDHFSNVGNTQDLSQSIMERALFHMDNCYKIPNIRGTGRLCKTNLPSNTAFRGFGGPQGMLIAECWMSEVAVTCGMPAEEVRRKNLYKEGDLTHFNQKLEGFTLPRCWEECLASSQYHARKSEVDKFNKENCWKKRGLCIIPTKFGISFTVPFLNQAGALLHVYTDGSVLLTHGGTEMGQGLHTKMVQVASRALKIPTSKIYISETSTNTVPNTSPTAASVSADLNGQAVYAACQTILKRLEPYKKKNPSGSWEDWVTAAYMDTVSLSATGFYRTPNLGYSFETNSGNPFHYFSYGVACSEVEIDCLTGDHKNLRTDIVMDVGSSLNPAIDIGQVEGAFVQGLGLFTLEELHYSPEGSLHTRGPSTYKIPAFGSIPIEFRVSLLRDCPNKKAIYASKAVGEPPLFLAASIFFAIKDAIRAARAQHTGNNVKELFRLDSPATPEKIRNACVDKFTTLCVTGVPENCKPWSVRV

Turning to `O=c1c(O)c(-c2ccc(O)c(O)c2)oc2cc(O)cc(O)c12` [QUERCETIN], the “inhibition (INH)” value in series [1] is listed as > 50%. In series [2], `O=c1cc(-c2ccc(O)c(O)c2)oc2cc(O)cc(O)c12` [LUTEOLIN] showed a pIC50 of 5.11. Further, in series [1], the “inhibition (INH)” value is > 50%. With `O=c1c(O)c(-c2cc(O)c(O)c(O)c2)oc2cc(O)cc(O)c12` [MYRICETIN], the “inhibition (INH)” value in series [1] is on record as > 50%. Regarding `O=c1c(O)c(-c2ccc(O)cc2)oc2cc(O)cc(O)c12` [KAEMPFEROL], the “inhibition (INH)” value in series [1] is > 50%.

Compound `CCOC(=O)C1=Nc2c(O)ccc(-c3cc(=O)c4c(O)cc(O)cc4o3)c2SC1` showed a pIC50 in series [2] of 5.77. In addition, the “inhibition (INH)” value in series [2] (human, 10 min) is listed as “Dose-dependent effect”.

As a reminder, the pIC50 is −log10 of the IC50, conventionally taken in molar units.
